# Measured values from patent publication US7449558B2, “Site-specific labelling of proteins” (National University of Singapore, priority 2003, dated 2008).
# What was measured:
# N-terminal cysteine GST = target: T1, N-terminal cysteine GST (Schistosoma japonicum, UniProt P08515); test: In vivo time-course labelling of N-terminal cysteine GST in live bacterial cells; type: cell-based, E. coli; settings: cells expressing labelled GST, FIG. 15
# T1 construct: Ssp DnaB intein tag (pTWIN2) (N, cleaved yes); expressed in transfected cells; host or cells: E. coli ER2566 transformed with pTWIN2-GST
# Method: To generate in vivo proteins having N-terminal cysteine residues, bacterial cells expressing N-terminal cysteine-containing proteins EGFP and GST fused to the C-terminus of the Ssp DnaB mini-intein were induced to undergo self-cleavage, releasing the N-terminal cysteine protein, then incubated with the probes over a period of 24 h.
# Briefly, the above bacterial constructs were transformed into the E. coli expression strain ER2566 (NEB) and grown in 100 mg/L ampicillin containing LB media at 37° C. […]
# For the time-course labelling experiments, a small sample of cells was removed at each time interval, quenched with 0.01M cysteine, and lysed by boiling with SDS loading buffer. The resulting sample was analyzed directly on a 12% SDS-PAGE. Fluorescence labelling was visualized with a Typhoon™ fluorescence scanner (Amersham Biosciences). Biotinylated proteins were detected by western blotting (with anti-biotin-HRP) with the Enhanced ChemiLuminescent™ kit (Amersham).
# Results are shown in FIG. 13, where i=cells labelled with probe 2 (FL), ii=cells labelled with probe 3 (TMR) and iii=cells labelled with probe 5 (biotin) (lanes 1-8 are samples taken at 0 min, 10 min, 30 min, 1 h, 3 h, 6 h, 12 h and 24 h, respectively). The results of the 24 hour time-course are quantified in FIG. 14 (FL=♦, TMR=▪ and BIOTIN=▴).
# [1] = system: N-terminal cysteine ECFP-NLS; test: Fluorescence microscopy / FRET of HEK293 cells expressing N-terminal cysteine ECFP-NLS; type: cell-based; settings: HEK293 cells transfected with ECFP-NLS
# Excerpt: Intein-fused EGFP and ECFP (enhanced cyan fluorescent protein) were constructed, in which an extra N-terminal cysteine was introduced into both EGFP and ECFP, as described above. To facilitate evaluation of the labelling, as well as to assess whether the strategy targets proteins expressed in subcellular compartments of mammalian cells (e.g. nucleus), a nuclear localization sequence (NLS) was fused to ECFP, generating ECFP-NLS. The intein-fused EGFP gene was amplified from the above bacterial construct, while the ECFP gene with a nuclear localization sequence (ECFP-NLS) was amplified from pECFP-Nuc (Clontech, USA) and cloned first into the pTWIN1 vector. Using the GATEWAY™ cloning system (Invitrogen, USA), the intein-fused genes were cloned into the donor vector pDONR201, followed by recombination of the cloned genes into a mammalian expression vector pT-Rex-DEST30 (Invitrogen). All constructs were sequence verified. […]
# Fluorescence microscopy experiments were also performed using HEK293 mammalian cells. […] The fluorescence images were obtained using the excitation and emission channels described above for the bacterial experiments.
# N-terminal cysteine EGFP = N-terminal cysteine EGFP (Aequorea victoria, UniProt P42212, F64L/H231L/S65T); settings: labelled bacterial cells expressing EGFP, excitation 470±20 nm, emission 605±30 nm
# Method: The FRET channel for CFP/TMR pair was recorded using filters with an excitation: 436±20 nm and emission: 620±20 nm (Chroma). The FRET channel for GFP/TMR pair was using filters with excitation=470±20 nm and emission=605±30 nm (Zeiss).
# [2] = system: control proteins without N-terminal cysteine (GST, Protease, Lipase, Papain, Pepsin); test: In vitro labelling of control proteins without an N-terminal cysteine (site-specificity); type: biochemical; settings: 5 control proteins with no or only internal cysteines, 60 min incubation
# Method: Probes were prepared as 200 μM stocks (25× in DMSO) and stored at −20° C. In a typical labelling reaction, 6 μl of each probe (final concentration: 8 μM) was added to 50 μl of pure protein (1 mg/ml) dissolved in 1×PBS (final concentration of protein: ˜[…]), with or without 1 mM DTT, and the reaction was topped up with 1×PBS to a final volume of 150 μl. DTT was added to experiments, where live cells were used, to reduce background labelling. At specific time intervals, 15 μl of the reaction was withdrawn and quenched by addition of 1.7 μl of 100 mM cysteine to the reaction mixture (final concentration of cysteine: 10 mM), followed by denaturation with SDS-PAGE loading dye at 95° C. for 3 min. The loading dye also serves to hydrolyze the diacetate groups on probes 2 and 4, thereby releasing the fluorescence.
# Probe 3 was used in the labelling reaction, and the reaction was performed as mentioned above with 60 min incubation time. All proteins are available from Sigma (St Louis, USA). (Lane 1. GST (cat #: G-4385); Lane 2. Protease (P-5380); Lane 3. Lipase (L-9031); Lane 4. Papain (P-4762); Lane 5. Pepsin (P-6887); Lane 6. BioRad Precision Plus Protein Standards).
# HEK293 cells = test: Cell toxicity in HEK293 cells during labelling; type: cell-based; settings: 100 μM, 24 h
# Method: Briefly, HEK293 cells grown in DMEM+10% FBS media at 37° C. with 5% CO2 were transiently transfected with pT-Rex-DEST30-intein-EGFP-NLS or pT-Rex-DEST30-intein-ECFP-NLS using Polyfect™ (Qiagen, USA). See FIGS. 12ii. and iii., respectively, for in vivo intein cleavage for the expressed EGFP and ECFP proteins expressed in HEK293 cells. After 36 hours of protein expression, cells were washed in 1×PBS and cystine-free DMEM (Sigma) was added. The biotin-thioester probe, probe 5, was added to a final concentration of 100 μM (10-100 μM also worked) and cells were incubated for another 24 h. […] Cells were harvested by centrifugation at 1000 rpm for 10 min and resuspended in 1×PBS. Washings were repeated at least 3 times, and cells were lysed in PBS using glass beads. Magnetic streptavidin beads (Promega, USA) were used to pull-down all biotinylated proteins in the cell lysate. Beads were washed twice in 1× PBS, then boiled in 1×SDS loading buffer and loaded onto a 12% SDS-PAGE. Western blotting was used to assess biotinylated proteins, as described above.
# T1 sequence (P08515 whole entry, added parts left off): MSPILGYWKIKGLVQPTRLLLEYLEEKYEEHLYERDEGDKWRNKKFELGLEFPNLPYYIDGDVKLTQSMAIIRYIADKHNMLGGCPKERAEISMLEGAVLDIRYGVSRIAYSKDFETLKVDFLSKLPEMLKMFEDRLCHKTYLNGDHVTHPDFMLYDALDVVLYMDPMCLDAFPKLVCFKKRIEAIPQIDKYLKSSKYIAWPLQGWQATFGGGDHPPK
smiles,measurement,setting,value
"O=C(CNC(=O)c1ccc(C2=C3C=CC(O)C=C3Oc3cc(O)ccc32)c(C(=O)O)c1)SCc1ccccc1 (stereo not drawn) [Probe 2, N-benzylsulfanylcarbonylmethyl-6-(3,6-dihydroxy-3H-xanthen-9-yl)-isophthalamic acid]",specificity of labelling inside the live cell (SDS-PAGE),N-terminal cysteine GST,"only the desired protein was labelled specifically, as well as covalently, inside the live cell, with little or no background observed"
"CN(C)c1ccc2c(c1)Oc1cc(N(C)C)ccc1C21OC(=O)c2cc(C(=O)NCC(=O)SCc3ccccc3)ccc21 [Probe 3, amino thioacetic acid S-benzyl ester of 5-carboxy-tetramethylrhodamine]",localization of labelling,"[1]; 100 μM probe, 24 h",the majority of the labelling occurred inside the nucleus
same,FRET signal,"[1]; excitation 436±10 nm, emission 620±30 nm",clear FRET signal in the nucleus of the labelled cells
same,FRET signal,N-terminal cysteine EGFP,a clear FRET signal was observed
same,site-specificity of labelling,[2],labelling occurred ONLY with proteins possessing an N-terminal cysteine
"O=C(CCCCC1SCC2NC(=O)NC21)NCC(=O)SCc1ccccc1 (stereo not drawn) [Probe 5, [5-(2-oxo-hexahydro-thieno[3,4-d]imidazol-6-yl)-pentanoylamino]-thioacetic acid S-benzyl ester]",cell toxicity,HEK293 cells,No cell toxicity was observed
